Results published in the NIST ThermoML archive (doi:10.1016/j.jct.2015.08.022).
Numbers after ± are expanded uncertainties.

Assays:
[1] = Molar enthalpy of transition or fusion; details: Crystal; DSC
[2] = Crystal; DTA

SMILES | Molar enthalpy of transition or fusion [1] [kcal/mol] | Normal melting temperature [2] [°C]
Nc1ccc(C(=O)O)cc1 [4-aminobenzoic acid] | 5.98 ± 0.167 | 185.6 ± 0.4
NNC(=O)c1ccncc1 [isonicotinic acid hydrazide] | 7.43 ± 0.191 | 170.4 ± 0.4
NC(=O)c1cnccn1 [pyrazinecarboxamide] | 6.48 ± 0.167 | 189.4 ± 0.4
